Where two headings read alike, the source gives them in different places.
Tests used:
Assay in all cases: Further analysis of a plurality of inhibitors and a plurality of kinases on microarray (Example IX, Table 5);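 also: inhibition of each kinase by the inhibitors is given as a qualitative level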;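 as to Inhibition level, FYN: level 0 no or unclear inhibition to Level 2 substantial inhibition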;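 as to Inhibition level, MAP2K4: level 0 none or unclear Level 1 marginal Level 2 substantial inhibition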;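 as to Inhibition level, MAP3K7: level 0 none or unclear then 1 little or marginal then 2 substantial inhibition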;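 as to Inhibition level, STK4: level 0 no or unclear inhibition to Level 2 substantial inhibition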
Assay type in all cases: biochemical
[1] = biological target: T1, plurality of kinases (Table 5) (Homo sapiens, UniProt Q12866); settings: plate B11; inhibitor 100 uM
T1 sequence (Q12866 21-999): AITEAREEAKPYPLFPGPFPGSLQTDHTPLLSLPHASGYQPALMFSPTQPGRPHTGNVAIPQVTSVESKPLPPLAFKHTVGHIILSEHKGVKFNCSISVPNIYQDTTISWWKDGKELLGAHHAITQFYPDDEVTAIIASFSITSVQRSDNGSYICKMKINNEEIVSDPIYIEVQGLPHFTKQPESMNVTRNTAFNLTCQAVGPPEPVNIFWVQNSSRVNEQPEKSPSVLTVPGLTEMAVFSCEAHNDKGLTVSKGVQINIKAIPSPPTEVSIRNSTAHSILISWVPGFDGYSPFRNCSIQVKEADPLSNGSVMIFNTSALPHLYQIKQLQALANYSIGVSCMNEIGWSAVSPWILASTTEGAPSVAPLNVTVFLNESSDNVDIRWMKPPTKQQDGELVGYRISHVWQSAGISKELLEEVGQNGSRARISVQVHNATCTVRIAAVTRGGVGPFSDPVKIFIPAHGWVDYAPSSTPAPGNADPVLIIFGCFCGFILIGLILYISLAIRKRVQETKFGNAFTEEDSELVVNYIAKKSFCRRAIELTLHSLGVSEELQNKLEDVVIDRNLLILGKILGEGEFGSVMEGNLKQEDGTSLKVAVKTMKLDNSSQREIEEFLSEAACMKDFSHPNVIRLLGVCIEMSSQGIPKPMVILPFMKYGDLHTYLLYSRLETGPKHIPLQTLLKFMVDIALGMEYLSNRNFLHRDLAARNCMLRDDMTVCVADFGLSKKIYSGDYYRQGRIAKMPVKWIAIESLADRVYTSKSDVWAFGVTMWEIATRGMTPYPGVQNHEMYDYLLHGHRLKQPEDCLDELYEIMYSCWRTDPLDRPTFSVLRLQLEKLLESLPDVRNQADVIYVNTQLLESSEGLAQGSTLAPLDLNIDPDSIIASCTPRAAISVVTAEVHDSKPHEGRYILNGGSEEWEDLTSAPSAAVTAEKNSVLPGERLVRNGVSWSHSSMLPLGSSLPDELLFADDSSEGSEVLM

[2] = biological target: plurality of kinases (Table 5) (Homo sapiens, UniProt P06241)
[3] = biological target: T2, plurality of kinases (Table 5) (Homo sapiens, UniProt P45985)
T2 sequence (P45985 1-399): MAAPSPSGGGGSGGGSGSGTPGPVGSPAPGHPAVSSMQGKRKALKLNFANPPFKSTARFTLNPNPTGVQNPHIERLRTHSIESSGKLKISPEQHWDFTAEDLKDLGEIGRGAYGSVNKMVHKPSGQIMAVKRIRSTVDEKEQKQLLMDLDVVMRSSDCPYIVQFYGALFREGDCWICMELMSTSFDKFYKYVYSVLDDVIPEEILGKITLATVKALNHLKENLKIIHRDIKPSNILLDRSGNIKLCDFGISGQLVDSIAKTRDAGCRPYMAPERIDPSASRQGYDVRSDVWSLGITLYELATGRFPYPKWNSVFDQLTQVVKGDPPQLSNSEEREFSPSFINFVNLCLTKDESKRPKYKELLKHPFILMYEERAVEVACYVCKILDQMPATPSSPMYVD

[4] = biological target: T3, plurality of kinases (Table 5) (Homo sapiens, UniProt O43318); settings: plate G9
T3 sequence (O43318 1-606): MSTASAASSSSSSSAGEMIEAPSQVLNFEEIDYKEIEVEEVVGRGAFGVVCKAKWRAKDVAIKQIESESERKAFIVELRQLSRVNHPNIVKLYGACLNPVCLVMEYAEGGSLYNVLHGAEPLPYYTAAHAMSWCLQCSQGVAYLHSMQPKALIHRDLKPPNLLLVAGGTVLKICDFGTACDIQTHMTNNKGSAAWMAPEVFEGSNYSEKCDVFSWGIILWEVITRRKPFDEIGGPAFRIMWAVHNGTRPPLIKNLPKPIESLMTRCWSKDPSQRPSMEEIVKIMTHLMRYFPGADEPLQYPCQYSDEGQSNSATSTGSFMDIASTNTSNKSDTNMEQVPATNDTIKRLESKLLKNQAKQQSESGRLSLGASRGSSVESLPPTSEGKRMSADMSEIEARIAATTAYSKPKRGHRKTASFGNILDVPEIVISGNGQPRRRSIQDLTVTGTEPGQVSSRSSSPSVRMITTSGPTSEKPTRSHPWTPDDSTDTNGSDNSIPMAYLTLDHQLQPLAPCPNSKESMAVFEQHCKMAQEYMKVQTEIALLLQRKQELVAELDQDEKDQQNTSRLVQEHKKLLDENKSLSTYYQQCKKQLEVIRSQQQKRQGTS

[5] = biological target: plurality of kinases (Table 5) (Homo sapiens, UniProt Q9Y6E0); settings: plate F11; inhibitor 100 uM
[6] = biological target: T4, plurality of kinases (Table 5) (Homo sapiens, UniProt Q13043); settings: plate D6
T4 sequence (Q13043 1-487): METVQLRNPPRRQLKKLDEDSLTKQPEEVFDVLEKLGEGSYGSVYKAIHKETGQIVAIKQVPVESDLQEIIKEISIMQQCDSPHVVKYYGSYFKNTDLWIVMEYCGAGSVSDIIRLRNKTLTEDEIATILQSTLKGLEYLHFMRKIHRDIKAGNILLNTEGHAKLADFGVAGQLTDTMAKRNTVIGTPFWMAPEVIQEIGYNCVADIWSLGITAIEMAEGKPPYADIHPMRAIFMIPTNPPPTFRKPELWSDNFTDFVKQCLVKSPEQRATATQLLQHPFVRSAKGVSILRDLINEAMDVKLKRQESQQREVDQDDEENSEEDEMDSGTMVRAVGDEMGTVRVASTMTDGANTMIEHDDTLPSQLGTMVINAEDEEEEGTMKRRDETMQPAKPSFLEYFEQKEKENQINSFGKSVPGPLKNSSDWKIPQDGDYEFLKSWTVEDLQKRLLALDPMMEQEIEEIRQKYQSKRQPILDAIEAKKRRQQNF

[7] = plate A4, Domain 0, inhibitor 100 uM

Sequence of plurality of kinases (Table 5) (Homo sapiens, UniProt P06241) (P06241 whole entry): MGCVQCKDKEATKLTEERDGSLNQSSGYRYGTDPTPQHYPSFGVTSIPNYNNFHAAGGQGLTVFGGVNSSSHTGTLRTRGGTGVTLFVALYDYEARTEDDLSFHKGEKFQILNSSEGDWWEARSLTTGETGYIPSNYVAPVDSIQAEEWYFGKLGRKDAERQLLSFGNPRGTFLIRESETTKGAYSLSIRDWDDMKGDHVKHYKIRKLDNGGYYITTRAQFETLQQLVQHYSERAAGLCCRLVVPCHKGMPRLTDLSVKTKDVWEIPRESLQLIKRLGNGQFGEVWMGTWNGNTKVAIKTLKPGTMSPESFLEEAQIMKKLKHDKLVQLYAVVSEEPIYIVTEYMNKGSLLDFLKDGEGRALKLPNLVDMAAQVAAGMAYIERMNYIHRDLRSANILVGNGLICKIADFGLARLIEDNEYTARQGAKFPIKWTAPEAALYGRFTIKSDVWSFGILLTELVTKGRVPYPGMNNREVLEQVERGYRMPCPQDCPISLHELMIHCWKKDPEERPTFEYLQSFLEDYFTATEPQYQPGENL
Sequence of plurality of kinases (Table 5) (Homo sapiens, UniProt Q9Y6E0) (Q9Y6E0 whole entry): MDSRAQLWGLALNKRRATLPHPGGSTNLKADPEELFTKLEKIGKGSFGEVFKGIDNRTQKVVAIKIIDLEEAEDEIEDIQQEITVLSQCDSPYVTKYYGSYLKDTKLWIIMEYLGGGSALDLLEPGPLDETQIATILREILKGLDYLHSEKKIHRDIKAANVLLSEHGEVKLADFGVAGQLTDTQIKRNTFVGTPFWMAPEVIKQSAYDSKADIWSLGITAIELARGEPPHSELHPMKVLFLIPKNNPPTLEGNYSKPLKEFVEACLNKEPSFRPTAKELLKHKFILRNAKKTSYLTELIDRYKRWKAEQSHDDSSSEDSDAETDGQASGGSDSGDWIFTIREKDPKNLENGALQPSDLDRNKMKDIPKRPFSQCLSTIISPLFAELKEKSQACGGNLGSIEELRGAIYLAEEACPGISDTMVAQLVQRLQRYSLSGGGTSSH

Inhibition level, MAP3K7 ([4]; inhibitor 100 uM) | Inhibition level, STK24 [5] | Inhibition level, FYN ([2]; plate A4, Domain 0, Genistein <3.7 mM) | Inhibition level, MAP2K4 ([3]; plate E6, Genistein <3.7 mM) | Inhibition level, MAP3K7 ([4]; Genistein <3.7 mM) | Inhibition level, STK4 ([6]; Genistein, conc. not given) | Inhibition level, FYN ([2]; plate A4, Domain 0, Ro-31-8220 90 uM) | Inhibition level, MAP2K4 ([3]; plate E6, Ro-31-8220 90 uM) | Inhibition level, MAP3K7 ([4]; Ro-31-8220 90 uM) | Inhibition level, STK4 ([6]; Ro-31-8220, conc. not given) | Structure (SMILES) | Inhibition level, MERTK [1] | Inhibition level, FYN [2, 7] | Inhibition level, MAP2K4 ([3]; plate E6, inhibitor 100 uM) | Inhibition level, STK4 ([6]; inhibitor 100 uM) | Inhibition level, FYN [2] | Inhibition level, MAP2K4 [3] | Inhibition level, STK4 ([6]; Staurosporine, conc. not given)
1 | 2 | 1 | 0 | 0 | 0 | – | – | – | – | O=c1c(-c2ccc(O)cc2)coc2cc(O)cc(O)c12 [Genistein] | 2 | 2 | 2 | 0 | – | – | –
2 | 2 | – | – | – | – | – | – | – | – | O=S(=O)(NCCNC/C=C/c1ccc(Br)cc1)c1cccc2cnccc12 [H-89] | 2 | 2 | 1 | 2 | – | – | –
2 | 2 | – | – | – | – | – | – | – | – | CC(C)(C)n1nc(-c2ccc(Cl)cc2)c2c(N)ncnc21 [PP2] | 2 | – | 2 | 2 | – | – | –
– | – | – | – | – | – | – | – | – | – | O=c1c(O)c(-c2ccc(O)c(O)c2)oc2cc(O)cc(O)c12 [Quercetin] | 1 | – | 0 | 0 | – | – | –
2 | 2 | – | – | – | – | 0 | 0 | 2 | 0 | Cn1cc(C2=C(c3cn(CCCSC(=N)N)c4ccccc34)C(=O)NC2=O)c2ccccc21 [Ro-31-8220] | 2 | 2 | 1 | 2 | – | – | –
– | – | – | – | – | – | – | – | – | – | CN[C@@H]1C[C@H]2O[C@@](C)([C@@H]1OC)n1c3ccccc3c3c4c(c5c6ccccc6n2c5c31)C(=O)NC4 [Staurosporine] | – | – | – | – | 2 | 0 | 0

Structure (SMILES) | Inhibition level, MAP3K7 ([4]; inhibitor 100 uM) | Inhibition level, STK24 [5] | Inhibition level, FYN ([2]; plate A4, Domain 0, Genistein <3.7 mM) | Inhibition level, MAP2K4 ([3]; plate E6, Genistein <3.7 mM) | Inhibition level, MAP3K7 ([4]; Genistein <3.7 mM) | Inhibition level, STK4 ([6]; Genistein, conc. not given) | Inhibition level, FYN ([2]; plate A4, Domain 0, Ro-31-8220 90 uM) | Inhibition level, MAP2K4 ([3]; plate E6, Ro-31-8220 90 uM) | Inhibition level, MAP3K7 ([4]; Ro-31-8220 90 uM) | Inhibition level, STK4 ([6]; Ro-31-8220, conc. not given) | Inhibition level, MERTK [1] | Inhibition level, FYN [2, 7] | Inhibition level, MAP2K4 ([3]; plate E6, inhibitor 100 uM) | Inhibition level, STK4 ([6]; inhibitor 100 uM) | Inhibition level, FYN [2] | Inhibition level, MAP2K4 [3] | Inhibition level, STK4 ([6]; Staurosporine, conc. not given)
N#C/C(=C/c1ccc(O)c(O)c1)C(=O)NCc1ccccc1 [AG 490] | 0 | 2 | – | – | – | – | – | – | – | – | 2 | 2 | 0 | 0 | – | – | –
COc1cc2ncnc(Nc3cccc(Cl)c3)c2cc1OC [AG 1478] | 0 | 1 | – | – | – | – | – | – | – | – | 2 | 2 | 0 | 1 | – | – | –
CC(=O)c1c(O)c(C)c(O)c(Cc2c(O)c3c(c(C(=O)/C=C/c4ccccc4)c2O)OC(C)(C)C=C3)c1O [Rottlerin (Mallotoxin)] | 2 | 1 | – | – | – | – | – | – | – | – | 2 | 2 | 1 | 0 | – | – | –

— patent US7635572B2, “Methods for conducting assays for enzyme activity on protein microarrays” (Life Technologies Corporation, priority 2004, dated 2009)
